The target of data set [1] is T1, NMDAR (Mus musculus, UniProt P35438). Description: Whole-cell voltage-clamp recordings of evoked NMDAR-EPSCs in CA1 pyramidal cells of acute hippocampal slices. The format is cell-based. As to conditions: for effect of a low dose after priming of NMDARs with high doses of glycine or D-serine: subsequent application of a low dose.
For data set [2] the following is noted: 175 mg, clinical trials; cited from earlier work.
Data set [3] has as its system NMDAR (GluN1-WT or GluN1-A714L with GluN2A) in HEK293 cells. As to conditions: 1 mM glycine.
Data set [4] relates to NMDAR. In words: Whole-cell voltage-clamp recordings of evoked NMDAR-EPSCs in CA1 pyramidal cells of acute hippocampal slices. As to conditions: 1 mM glycine, acute slices, cells infected with AAV-GluN1-A714L. The data set is classed as cell-based, mouse.
Data set [5] has as its target T1, NMDAR. Description: NMDAR-EPSC trains in acute slices during the oxygen-glucose deprivation (OGD) paradigm. The format is cell-based. As to conditions: NMDAR-EPSC trains (20 Hz) recorded with GO. The text has this:
Whole-cell electrophysiology on hippocampal slices and HEK293 cells. Whole-cell voltage-clamp recordings were obtained from visually identified CA1 pyramidal cells from acute hippocampal brain slices (300 μm thick) in oxygenated artificial cerebrospinal fluid (ACSF) as previously described (Martina et al., 2004, 2005). The cells were voltage-clamped at −65 mV using cesium methane sulfonate based internal solution and postsynaptic currents were evoked by electrical stimulation of the Schaffer collaterals with a bipolar stimulating electrode positioned in the Stratum radiatum. The intensity of the stimulation was adjusted to obtain evoked excitatory postsynaptic currents (EPSCs). […] To isolate the NMDAR-EPSC, a low concentration of MgCl2 (0.13 mM) ACSF was used wherein the CaCl2 concentration was increased to 3.5 mM to maintain cation balance.
Oxygen-glucose deprivation paradigm. To mimic ischemia, the acute slices were challenged by an oxygen-glucose deprivation paradigm (OGD) modified from Rossi et al. (Rossi et al., 2000). In this paradigm, external glucose was replaced with 7 mM sucrose, and the external solution was saturated with 95% N2/5% CO2 instead of 95% O2/5% CO2. Iodoacetate and cyanide were also added to the OGD external solution to block glycolysis and oxidative phosphorylation.
Purification of glycine oxidase. […]

Entries after “also recorded” stand apart in the source; their conditions may differ.

`O=C(O)CN(CC(=O)O)c1ccccc1OCCOc1ccccc1N(CC(=O)O)CC(=O)O` [BAPTA]: on NMDAR [1] (BAPTA 10 mM in the recording electrode), the “effect on the decrease in NMDAR-EPSC amplitude induced by 1 mM exogenous glycine” value was “significant attenuation”.

In the case of `O=C(N/N=C/c1ccc(O)c(O)c1)c1cc2ccccc2cc1O` [dynasore], at NMDAR [1] (100 μM dynasore), the “effect on the decrease in NMDAR-EPSC amplitude by 1 mM glycine” value was “abolished”. For the same molecule, the “effect on the decrease in NMDAR-EPSC amplitude evoked by 1 mM D-serine” value on NMDAR [1] (dynasore) was “abolished”. Further, on NMDAR [1] (dynasore, GlyT1+/− mice), the “effect on the decrease of NMDAR-EPSC amplitude induced by 250 μM glycine” value is on record as “abolished”.

As to `N[C@H](CO)C(=O)O` [D-serine], the “effect on evoked NMDAR-EPSC amplitude” value on NMDAR [1] (10 μM D-serine, WT and SR−/− mice) is listed as “potentiated”. Further, the “effects of increasing concentrations on NMDAR-EPSC amplitudes” value at NMDAR [1] (D-serine, WT mice) is listed as “dose-dependent”. For the same molecule, on NMDAR [1] (SR−/− mice), the “dose required to induce a decrease in NMDAR-EPSC amplitude” value came out at 2 mM. Moreover, on NMDAR [1] (WT mice), the “dose required to induce a decrease in NMDAR-EPSC amplitude” value is reported as 1 mM and the “dose-response curve of NMDAR-EPSC amplitudes relative to that of glycine” value was “left-shifted”. In addition, the “effect of a low dose after priming of NMDARs with high doses of glycine or D-serine” value on NMDAR [1] was “induced GINI”.

Turning to `C[C@H](Oc1ccc(S(C)(=O)=O)cc1C(=O)N1CCN(c2ncc(C(F)(F)F)cc2F)CC1)C(F)(F)F` [Bitopertin], the “tolerability at high dose” value in data set [2] was “relatively well tolerated”.

Turning to `NCC(=O)O` [glycine], the “effect on NMDAR amplitude” value in data set [3] (cells expressing GluN1-A714L) is “significantly increased”. Besides, the “effect on amplitude of the NMDAR-EPSC” value in data set [3] (cells expressing GluN1-WT) is “significant decrease”. For the same molecule, the “effect on NMDAR-EPSC amplitudes” value with NMDAR [4] was “did not decrease”. Besides, the “effect on NMDAR-EPSC amplitude” value is listed as “significantly inhibited” on NMDAR [1] (250 μM glycine, GlyT1+/− mice); “potentiated” at NMDAR [1] (250 μM glycine, WT mice); “increase in NMDAR-EPSC amplitude” on NMDAR [1] (1 mM glycine with low Ca2+ (1 mM)); “increased; also recorded: potentiated in a dose-dependent fashion” on NMDAR [1] (bath application of low glycine concentrations (below / ≤250 μM), WT slices); “significantly reduced; also recorded: significant decrease” at NMDAR [1] (high glycine concentration (1 mM), normal Ca2+ (3.5 mM), WT slices). Also, the “difference in NMDAR-EPSC amplitude between WT and GlyT1+/− mice” value at NMDAR [1] (bath application of 10 μM or 1 mM glycine) was “no significant effect”. For the same molecule, the “effect of a low dose after priming of NMDARs with high doses of glycine or D-serine” value at NMDAR [1] is given as “induced GINI”.

B1: GO: an enzyme that catalyzes the breakdown of glycine; His-tagged, from Bacillus subtilis, expressed in E. coli (protein, UniProt O31616 1-369, looked up)
Glycine oxidase: MKRHYEAVVIGGGIIGSAIAYYLAKENKNTALFESGTMGGRTTSAAAGMLGAHAECEERDAFFDFAMHSQRLYKGLGEELYALSGVDIRQHNGGMFKLAFSEEDVLQLRQMDDLDSVSWYSKEEVLEKEPYASGDIFGASFIQDDVHVEPYFVCKAYVKAAKMLGAEIFEHTPVLHVERDGEALFIKTPSGDVWANHVVVASGVWSGMFFKQLGLNNAFLPVKGECLSVWNDDIPLTKTLYHDHCYIVPRKSGRLVVGATMKPGDWSETPDLGGLESVMKKAKTMLPAIQNMKVDRFWAGLRPGTKDGKPYIGRHPEDSRILFAAGHFRNGILLAPATGALISDLIMNKEVNQDWLHAFRIDRKEAVQI
modifications: His tag
notes: an enzyme that catalyzes the breakdown of glycine; His-tagged, from Bacillus subtilis, expressed in E. coli
B1: the “effect on the decrease of the NMDAR-EPSC amplitude following OGD” value with NMDAR [5] is “abolished”.

The record behind these values is US20250295653A1, “Use Of Glycine Transporter- 1 Antagonists As Vascular Dementia And/Or Stroke Prophylactic/Treatment Agents” (Recherches Neuro-Hippocampe Inc., priority 2022, published 2025).
